Tests used:
[1] = system: rats with impaired cholinergic function; conditions: Messer et al. 2002; cited from earlier work
M4 receptors = target: T1, M4 receptors (Homo sapiens, UniProt P08173); test: Inhibition of adenylyl cyclase activity (cAMP levels) in CHO cells expressing M4 receptors; format: cell-based
T1 construct: expressed in transfected cells; host or cells: CHO cells
T1 sequence (P08173 1-479): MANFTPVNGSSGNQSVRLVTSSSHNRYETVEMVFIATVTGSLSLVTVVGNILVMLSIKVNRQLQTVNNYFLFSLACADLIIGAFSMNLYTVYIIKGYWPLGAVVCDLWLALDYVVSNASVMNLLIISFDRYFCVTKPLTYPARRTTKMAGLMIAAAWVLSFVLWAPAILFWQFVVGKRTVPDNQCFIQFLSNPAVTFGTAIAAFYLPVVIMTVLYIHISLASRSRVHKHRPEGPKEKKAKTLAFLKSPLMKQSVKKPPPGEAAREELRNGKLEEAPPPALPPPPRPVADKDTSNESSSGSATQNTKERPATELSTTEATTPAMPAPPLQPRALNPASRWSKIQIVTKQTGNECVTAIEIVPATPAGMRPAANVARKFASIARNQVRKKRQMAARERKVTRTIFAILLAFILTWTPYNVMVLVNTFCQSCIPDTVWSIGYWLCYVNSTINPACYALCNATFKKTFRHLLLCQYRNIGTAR
Procedure: (§1) The observed functional selectivity of CDD-0102A is unique among compounds purported to be selective M1 agonists. […] The lack of selectivity likely contributes to the high incidence of adverse effects observed when the compounds are administered to humans. To assess selectivity for muscarinic receptors, the ability of CDD-0102A to activate responses was compared with the nonselective, full agonist carbachol at each muscarinic receptor subtype. In cultured cell lines expressing individual muscarinic receptor subtypes, phosphoinositide (PI) metabolism studies assessed activity at M1, M3 and M5 receptors, while measures of cAMP levels examined M2 and M4 receptor activity. […] CDD-0102 was not active when M5 receptors were expressed at low levels in A9 L cells. […] Thus, CDD-0102 is a functionally-selective M1 agonist with weaker activity at M5 receptors, very weak activity at M3 receptor and no activity at M2 or M4 receptors.

M2 receptors = target: T2, M2 receptors (Homo sapiens, UniProt P08172); test: Inhibition of adenylyl cyclase activity (cAMP levels) in A9 L cells expressing M2 receptors; format: cell-based
T2 construct: expressed in transfected cells; host or cells: A9 L cells
T2 sequence (P08172 1-466): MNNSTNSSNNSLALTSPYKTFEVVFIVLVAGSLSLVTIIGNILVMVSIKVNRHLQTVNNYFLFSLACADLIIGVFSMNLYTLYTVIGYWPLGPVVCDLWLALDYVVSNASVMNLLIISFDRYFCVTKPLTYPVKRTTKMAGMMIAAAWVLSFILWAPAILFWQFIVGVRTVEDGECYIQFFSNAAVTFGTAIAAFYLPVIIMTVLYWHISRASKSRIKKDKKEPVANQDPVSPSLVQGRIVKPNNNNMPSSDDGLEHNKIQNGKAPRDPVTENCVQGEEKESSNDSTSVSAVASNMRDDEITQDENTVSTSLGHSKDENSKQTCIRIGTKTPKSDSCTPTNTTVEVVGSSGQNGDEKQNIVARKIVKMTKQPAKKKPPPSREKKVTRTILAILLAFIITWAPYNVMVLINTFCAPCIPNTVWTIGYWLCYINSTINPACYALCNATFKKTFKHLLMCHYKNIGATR
Procedure: as §1

M3 receptors = target: T3, M3 receptors (Homo sapiens, UniProt P20309); test: PI metabolism in A9 L cells expressing M3 receptors; format: cell-based; conditions: M3 receptors expressed in A9 L cells
T3 construct: expressed in transfected cells; host or cells: A9 L cells
T3 sequence (P20309 whole entry): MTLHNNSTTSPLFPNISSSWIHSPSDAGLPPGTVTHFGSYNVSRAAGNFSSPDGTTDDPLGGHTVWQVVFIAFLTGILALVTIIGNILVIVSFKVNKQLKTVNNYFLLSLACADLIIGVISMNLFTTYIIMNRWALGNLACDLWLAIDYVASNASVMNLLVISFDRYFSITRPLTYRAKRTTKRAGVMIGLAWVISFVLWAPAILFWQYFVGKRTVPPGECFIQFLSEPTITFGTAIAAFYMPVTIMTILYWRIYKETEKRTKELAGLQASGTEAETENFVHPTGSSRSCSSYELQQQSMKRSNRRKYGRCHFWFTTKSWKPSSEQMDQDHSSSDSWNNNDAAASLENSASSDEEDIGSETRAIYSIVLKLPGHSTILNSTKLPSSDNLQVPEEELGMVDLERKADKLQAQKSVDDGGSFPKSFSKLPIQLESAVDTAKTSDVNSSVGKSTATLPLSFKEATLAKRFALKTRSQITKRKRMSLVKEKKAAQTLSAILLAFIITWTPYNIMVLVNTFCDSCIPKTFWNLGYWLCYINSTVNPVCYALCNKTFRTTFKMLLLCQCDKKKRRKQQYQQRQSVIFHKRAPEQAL
Procedure: as §1

[2] = Messer et al. 2002; cited from earlier work
M5 receptors = target: T4, M5 receptors (Homo sapiens, UniProt P08912); test: PI metabolism in A9 L cells expressing M5 receptors; format: cell-based
T4 construct: expressed in transfected cells; host or cells: A9 L cells
T4 sequence (P08912 1-532): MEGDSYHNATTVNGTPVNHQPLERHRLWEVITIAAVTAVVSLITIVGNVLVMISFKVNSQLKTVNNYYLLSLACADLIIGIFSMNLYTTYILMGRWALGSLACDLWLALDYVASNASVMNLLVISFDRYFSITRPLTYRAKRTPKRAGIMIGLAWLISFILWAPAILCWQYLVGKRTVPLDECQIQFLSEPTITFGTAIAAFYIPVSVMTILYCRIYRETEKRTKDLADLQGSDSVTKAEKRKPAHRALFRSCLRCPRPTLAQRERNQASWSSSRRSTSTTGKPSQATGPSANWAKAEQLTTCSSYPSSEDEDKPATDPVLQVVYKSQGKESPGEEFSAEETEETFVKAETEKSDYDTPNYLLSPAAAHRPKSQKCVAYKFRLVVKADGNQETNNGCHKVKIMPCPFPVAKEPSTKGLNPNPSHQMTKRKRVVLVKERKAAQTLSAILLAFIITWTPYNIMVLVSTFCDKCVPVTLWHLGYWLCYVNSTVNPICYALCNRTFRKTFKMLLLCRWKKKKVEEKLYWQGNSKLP
Procedure: as §1

M1 receptors = target: T5, M1 receptors (Homo sapiens, UniProt P11229); test: PI metabolism in A9 L cells expressing M1 receptors; format: cell-based; conditions: M1 receptors expressed in A9 L cells
T5 construct: expressed in transfected cells; host or cells: A9 L cells
T5 sequence (P11229 1-460): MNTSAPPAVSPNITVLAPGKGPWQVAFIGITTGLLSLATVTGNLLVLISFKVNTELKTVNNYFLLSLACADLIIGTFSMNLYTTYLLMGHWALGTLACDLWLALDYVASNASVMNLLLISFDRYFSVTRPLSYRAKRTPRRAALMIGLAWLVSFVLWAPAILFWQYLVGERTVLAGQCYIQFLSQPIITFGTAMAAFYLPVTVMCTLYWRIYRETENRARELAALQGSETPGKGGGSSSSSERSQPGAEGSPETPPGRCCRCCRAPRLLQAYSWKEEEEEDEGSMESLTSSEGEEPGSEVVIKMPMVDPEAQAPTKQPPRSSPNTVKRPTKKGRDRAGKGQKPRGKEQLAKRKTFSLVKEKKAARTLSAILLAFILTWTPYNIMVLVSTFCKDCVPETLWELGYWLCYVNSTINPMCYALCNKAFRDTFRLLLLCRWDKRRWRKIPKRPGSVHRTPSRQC
Procedure: as §1

[3] = read-out: EC50, stimulation of PI metabolism

## CCc1noc(C2CN=CNC2)n1 (centres unmarked) [CDD-0102, 5-(3-ethyl-1,2,4-oxadiazol-5-yl)-1,4,5,6-tetrahydropyrimidine]
[1]
  Memory deficits: reverses memory deficits
M4 receptors
  Inhibition of adenylyl cyclase activity: inactive
M2 receptors
  Inhibition of adenylyl cyclase activity: inactive
M3 receptors; [3]
  EC50: 10 µM
M3 receptors; relative to carbachol
  PI metabolism, % of the carbachol response: 6.6%
[2]
  Side effect profile in vivo: low side effect profile
M5 receptors; M5 receptors expressed at low levels in A9 L cells
  Activity in PI metabolism: not active
M5 receptors; higher levels of M5 receptor expression in A9 L cells, read-out: EC50, stimulation of PI metabolism
  EC50: 7.5 µM
M5 receptors; higher levels of M5 receptor expression in A9 L cells, relative to carbachol
  PI metabolism, % of the carbachol response: 28%
M1 receptors; [3]
  EC50: 13 µM
M1 receptors; relative to full agonist carbachol
  PI metabolism, % of the carbachol response: 46%

Reference: patent US10835532B2, “Muscarinic agonists as cognitive enhancers” (The University of Toledo, priority 2008, dated 2020)
